Structures are written as SMILES.

For one assay, the target named is T1, α1β2 GABAARs (Rattus norvegicus, UniProt P62813+P63138).
T1 construct: expressed in transfected cells; host or cells: HEK293
In words: [3H]glutamate binding assay, plasma membranes of HEK293 cells overexpressing α1 and β2. Particulars: 40 nM [3H]glutamate + 0.4 mM non-radiolabeled competitor. The method, then:
For membrane preparation, transfected or non-transfected HEK293 cells were washed twice with cold PBS and harvested by scraping into 5 ml cold PBS. Cells were then centrifuged at 1200 × g for 12 min at 4 °C and medium was removed. The washing procedure was repeated twice. Then the cell pellet was re-suspended into 1 ml of 50 mM Tris-HCl buffer (pH 7.4, with protease inhibitor) and homogenized using syringes with 18-G, 21-G and 23-G needles.
To separate the membrane, the homogenate were centrifuged for 20 min at 20,000 × g at 4 °C. Then the pellet was re-suspended into 1 ml of 50 mM Tris-HCl buffer, pH 7.4 and centrifuged again. After repeating this procedure for one more time, the pellet was re-suspended into 1 ml of 50 mM Tris-HCl buffer, pH 7.4 and the protein concentration was measured.
To conduct the binding assay, 100 µg membrane enriched preparation was incubated with 40 nM [3H]-Glutamate in a total volume of 0.5 ml in 50 mM Tris-HCl buffer, pH 7.4 for 1 h on ice. […] Then the reaction was terminated by quickly filtering the solution on Whatman filter paper and washing by 3.5 ml Tris-HCl buffer. Radioactivity was measured in a Beckman liquid scintillation counter.

A further assay concerns the target T2, α1 β2 ^I180A γ2 GABAAR (Rattus norvegicus, UniProt P62813+P63138, I205A).
T2 construct: expressed in transfected cells; host or cells: HEK293
Kind of assay: Patch clamp, HEK293, mutant GABAAR. The format is cell-based. The conditions noted are these: glutamate 100 μM co-applied with GABA 1 μM; normalized to wild-type α1β2γ2. The method, then:
(§1) To positively confirm one of these two putative binding sites involved in glutamate binding, we performed a systemic mutational analysis of critical amino acids around these two sites followed by electrophysiological characterizations of their impacts on glutamate potentiation in HEK293 cells expressing wild-type or mutated α1β2γ2 GABAARs (Table 1).
(§2) HEK293 cells were cultured in DMEM (Invitrogen) supplemented with 10% fetal bovine serum. Cells were grown to 40–60% confluence and transiently transfected using Lipofectamine 2000 (Invitrogen) with 1:0.5–1 plasmid/lipid ratio. Cells were transfected with a pBK-CMV expression vector containing a rat recombinant GABAAR α, β or γ subunits. Co-transections were done with a plasmid ratio of 1:1 αβ and 2:2:1 for αβγ subunit combinations, respectively. pcDNA3.1-GFP was also co-transfected along with GABAAR subunits as a transfected marker in order to facilitate the visualization of the transfected cells during electrophysiological experiments. Cells were re-plated on glass coverslips after 15–20 h transfection and were cultured for an additional 15–24 h before whole-cell patch-clamp recordings.
(§3) The site-directed mutagenesis of α, β or γ subunits were performed by using the QuikChange method (Stratagene). […] Wild-type or mutant subunits were transfected in HEK293 cells and subjected to electrophysiology examinations.
(§4) Whole-cell patch-clamp recordings were performed under voltage-clamp mode using an Axopatch 200B or 1D patch-clamp amplifier (Molecular Devices) on HEK293 cells and cultured neurons. Whole-cell currents were recorded at a holding potential of −60 mV, and signals were filtered at 2 kHz, digitized at 10 kHz (Digidata 1322 A). Recording pipettes (3–5 MΩ) were filled with the intracellular solution that contained (mM): CsCl 140, HEPES 10, Mg-ATP 4, QX-314 5, pH 7.20; osmolarity, 290–295 mOsm. BAPTA (10 mM) was added in the intracellular solution. The coverslips were continuously superfused with the extracellular solution containing (mM): NaCl 140, KCl 5.4, HEPES 10, MgCl2 1.0, CaCl2 1.3, glucose 20, pH 7.4; osmolarity, 305–315 mOsm. […] Dose–response curves were created by fitting data to Hill equation: I = Imax/[1 + (EC50/[A])^n], where I is the current, Imax is the maximum current, [A] is a given concentration of agonist, n is the Hill coefficient. […] All experiments were performed at room temperature.
On the technique in general: Patch clamp records ionic current or voltage across a cell membrane.

The next assay has as its target T3, α1 β2^V177A γ2 GABAAR (Rattus norvegicus, UniProt P62813+P63138, V202A).
T3 construct: expressed in transfected cells; host or cells: HEK293
In words: Patch clamp, HEK293, mutant GABAAR. In kind it is cell-based. Particulars: glutamate 100 μM co-applied with GABA 1 μM; normalized to wild-type α1β2γ2. As for the experimental part: as §1, §2, §3, §4

A further assay concerns the target T4, α1^E208A β2 γ2 GABAAR (Rattus norvegicus, UniProt P62813+P63138, E235A).
T4 construct: expressed in transfected cells; host or cells: HEK293
In words: Patch clamp, HEK293, mutant GABAAR. The format is cell-based. Particulars: glutamate 100 μM co-applied with GABA 1 μM; normalized to wild-type α1β2γ2. As for the experimental part:
as §1, §2, §3, §4

The next assay has as its target T5, α1^F99A β2 γ2 GABAAR (Rattus norvegicus, UniProt P62813+P63138, F126A).
T5 construct: expressed in transfected cells; host or cells: HEK293
Kind of assay: Patch clamp, HEK293, mutant GABAAR. The format is cell-based. Particulars: glutamate 100 μM co-applied with GABA 1 μM; normalized to wild-type α1β2γ2. As for the experimental part: as §1, §2, §3, §4

In the next assay the target is T6, α1^S158A β2 γ2 GABAAR (Rattus norvegicus, UniProt P62813+P63138, S185A).
T6 construct: expressed in transfected cells; host or cells: HEK293
Kind of assay: Patch clamp, HEK293, mutant GABAAR. In kind it is cell-based. The conditions noted are these: glutamate 100 μM co-applied with GABA 1 μM; normalized to wild-type α1β2γ2. As for the experimental part:
as §1, §2, §3, §4

The target in the next assay is T7, α1^S205A β2 γ2 GABAAR (Rattus norvegicus, UniProt P62813+P63138, S232A).
T7 construct: expressed in transfected cells; host or cells: HEK293
In words: Patch clamp, HEK293, mutant GABAAR. In kind it is cell-based. The conditions noted are these: glutamate 100 μM co-applied with GABA 1 μM; normalized to wild-type α1β2γ2. The method, then: as §1, §2, §3, §4

The target of another assay is T8, α1^T206A β2 γ2 GABAAR (Rattus norvegicus, UniProt P62813+P63138, T233A).
T8 construct: expressed in transfected cells; host or cells: HEK293
Kind of assay: Patch clamp, HEK293, mutant GABAAR. The format is cell-based. Particulars: glutamate 100 μM co-applied with GABA 1 μM; normalized to wild-type α1β2γ2. As for the experimental part:
as §1, §2, §3, §4

In a further assay the target is T9, α1^Y159A β2 γ2 GABAAR (Rattus norvegicus, UniProt P62813+P63138, Y186A).
T9 construct: expressed in transfected cells; host or cells: HEK293
Kind of assay: Patch clamp, HEK293, mutant GABAAR. The conditions noted are these: glutamate 100 μM co-applied with GABA 1 μM; normalized to wild-type α1β2γ2. The format is cell-based. The method, then: as §1, §2, §3, §4

Another assay has as its target T10, α1^E137G β2 γ2 GABAAR (Rattus norvegicus, UniProt P62813+P63138, E164G).
T10 construct: expressed in transfected cells; host or cells: HEK293
Kind of assay: Patch clamp, HEK293, mutant GABAAR. In kind it is cell-based. The conditions noted are these: Glu 1 mM; GABA 1 µM; normalized to wild-type α1β2γ2.
Excerpt: (§5) The subunits are color-coded individually. The boxed regions are further enlarged in the middle panels, highlighting the predicted glutamate binding pocket in the α+ and β− interface, just below the loop C. […] Relative potentiation was obtained by normalizing potentiation observed in the mutated receptor to that in the respective wild-type receptor.
as §1, §2, §3, §4

For the next assay, the target named is T11, α1^K155D β2 γ2 GABAAR (Rattus norvegicus, UniProt P62813+P63138, K182D).
T11 construct: expressed in transfected cells; host or cells: HEK293
Kind of assay: Patch clamp, HEK293, mutant GABAAR. The format is cell-based. Particulars: Glu 1 mM; GABA 1 µM; normalized to wild-type α1β2γ2.
Excerpt: as §5, §1, §2, §3, §4

Another assay has as its target T12, α1β2γ2E168K GABAAR (Rattus norvegicus, UniProt P18508+P62813+P63138, E206K).
T12 construct: expressed in transfected cells; host or cells: HEK293
In words: Patch clamp, HEK293, mutant GABAAR. In kind it is cell-based. As for the experimental part:
(§6) However, for the GABAAR containing only α and β subunits, there are two α^+/β^− interfaces, with potentially two glutamate-binding pockets (Fig. 5a; Right).
as §2, §3, §4

The next assay addresses T13, α1β2γ2R197E GABAAR (Rattus norvegicus, UniProt P18508+P62813+P63138, R235E).
T13 construct: expressed in transfected cells; host or cells: HEK293
In words: Patch clamp, HEK293, mutant GABAAR. In kind it is cell-based. The method, then: as §6, §2, §3, §4

For `N[C@@H](CCC(=O)O)C(=O)O` [glutamate, Glutamate], the “[3H]glutamate binding activity in presence of competitor” value at α1β2 GABAARs worked out at 262.2 ± 47.8 CPM. For the same compound, the Relative potentiation on α1 β2 ^I180A γ2 GABAAR was found to be 18.8 ± 12.9%; at α1 β2^V177A γ2 GABAAR it was 89.5 ± 28.3%; on α1^E208A β2 γ2 GABAAR, 90.9 ± 28.7%; on α1^F99A β2 γ2 GABAAR, 96.4 ± 23.0%; at α1^S158A β2 γ2 GABAAR it was 106.9 ± 39.8%; on α1^S205A β2 γ2 GABAAR, 113.1 ± 33.0%. The values for the Relative potentiation on α1^T206A β2 γ2 GABAAR and on α1^Y159A β2 γ2 GABAAR were 129.3 ± 61.7% and 90.8 ± 26.7%, respectively. The “Relative potentiation, % of control” value was 26.9 ± 6.4% on α1^E137G β2 γ2 GABAAR and 19.8 ± 11.7% at α1^K155D β2 γ2 GABAAR. In addition, the “Glu-induced potentiation, % of wild-type α1β2γ2” value at α1β2γ2E168K GABAAR (Glu 100 μM) is on record as 169.4 ± 32.5%; on α1β2γ2E168K GABAAR (Glu 1 mM), 225.7 ± 51.9%; at α1β2γ2R197E GABAAR (Glu 100 μM) it was 204.9 ± 48.7%; at α1β2γ2R197E GABAAR (Glu 1 mM) it was 190.9 ± 39.2%. Moreover, the entries for the “Glu-induced potentiation, % of wild-type α1β2” value on α1β2γ2R197E GABAAR (Glu 100 μM) and on α1β2γ2R197E GABAAR (Glu 1 mM) were 92.7 ± 22.0% and 82.4 ± 16.9%, respectively.

For the origin of these results see PMC9527238, “Glutamate and GABAA receptor crosstalk mediates homeostatic regulation of neuronal excitation in the mammalian brain” (Signal Transduction and Targeted Therapy, 2022).
